Test results from patent US20080280878A1, “Methods and Compositions for Treating Chronic Lymphocytic Leukemia” (priority 2004, published 2008).
“And” between values parts separate entries of the source, which are not always exact repeats. Equal values may be shown once.

Tests used:
[1] = Solvent stability of low melt form: slurrying in H2O:EtOH (90:10); assay type: physicochemical; details: slurry in H2O:EtOH (90:10)
Method: 17-AAG may be prepared from geldanamycin by reacting with allyamine in dry THF under a nitrogen atmosphere. The crude product may be purified by slurrying in H2O:EtOH (90:10), and the washed crystals obtained have a melting point of 206-212° C. by capillary melting point technique. […] The two 17-AAG products are designated as the low melt form and high melt form.
MP=147-175° C. ^1H NMR and HPLC are consistent with the desired product.

[2] = system: ZAP70 in CLL B cells (CD3−, ZAP70+); assay: Two-color flow cytometry of ZAP70 expression in white blood cells of a ZAP70+ CLL patient: CLL B cells; assay type: cell-based, human; details: 300 nM, 24 hours at 37° C., untreated 85%
Method: (§1) The upper right quadrant were normal T-cells (CD3+, ZAP70+) the lower right quadrant were (CD3−, ZAP70+); the upper left quadrant is CD3+, ZAP70−; and the lower left quadrant is CD3−, ZAP70−.
(§2) (right panel). Levels of ZAP70 protein expression were measured by two color indirect immunofluorescence with specific anti-CD3 antibodies conjugated to phycoerytirin and anti-ZAP70 antibodies conjugated to Alexa-488 dye and analyzed by flow cytometry. CD3 is a specific marker of T cells. […] As shown in the untreated cells (left panel), approximately 5% of the cells were normal T-cells (CD3+, ZAP70+, upper right quadrant) and ˜85% of the cells were ZAP70+ CLL B cells (CD3−, ZAP70+, lower right quadrant). […] This is important because B-CLL patients are chronically immunosuppressed by their disease, so avoidance of effects on normal T-cell function performed by ZAP70 is clearly beneficial.
(§3) The samples were than prepared for flow cytometry analysis by a method described in Rassebti et al. supra. […] Levels of ZAP70 protein expression were measured by flow cytometry (FACSCalibur, BD Biosciences) and Flow-Jo software, version 2.7.4 (Tree Star).

[3] = system: ZAP70 in normal T-cells (CD3+, ZAP70+); assay: Two-color flow cytometry of ZAP70 expression in white blood cells of a ZAP70+ CLL patient: normal T-cells; assay type: cell-based, human; details: 300 nM, 24 hours at 37° C., untreated 4.5%
Method: as §1, §2, §3

[4] = cited from earlier work
[5] = system: ZAP70 in ZAP70+ CLL B cells; assay: ZAP70 protein expression by indirect immunofluorescence and FACS analysis; assay type: cell-based, human; details: ZAP70+ CLL B cells of one patient, 24 hours at 37° C.
Method: Levels of ZAP70 protein expression were measured by indirect immunofluorescence of permeabilized cells with specific anti-ZAP70 antibodies and FACS analysis.

ZAP70− CLL B cells = assay: Viability (100%-% apoptotic cells) by DiOC6 and propidium iodide staining; details: Homo sapiens, B-cell, 48 h, read-out: average % viability

SMILES	stability of the low melt form (conversion to high melt form) [1]	% positive cells (ZAP70) after treatment [2] [%]	% positive cells (ZAP70) after treatment [3] [%]	maximum tolerated dose (MTD) ([4]; daily 1-hour infusion for 5 days every three weeks) [mg/m^2]	clearance ([4]; human, in vivo) [L/h]	terminal half-life ([4]; human, in vivo) [h]	Cmax ([4]; read-out: Plasma Cmax, human, in vivo)	degradation of ZAP70 [5]	average % viability (ZAP70+ CLL B cells; 0.1 µM)	time to reach 50% cell mortality (ZAP70+ CLL B cells; 100 nM, 37° C., cells of one ZAP70+ patient)	IC50 (ZAP70+ CLL B cells; read-out: 50% inhibitory concentration (IC50), cell killing, 48 hours at 37° C., cells of one ZAP70+ patient) [nM]	viability at 0.1 µM (ZAP70− CLL B cells) [%]
C=CCNC1=C2C[C@@H](C)C[C@H](OC)[C@H](O)[C@@H](C)/C=C(\C)[C@H](OC(N)=O)[C@@H](OC)/C=C\C=C(/C)C(=O)NC(=CC1=O)C2=O [low melt form, 17-allylamino-17-demethoxygeldanamycin]	no conversion to the high melt form was observed	–	–	–	–	–	–	–	–	–	–	–
C=CCNC1=C2CC(C)CC(OC)C(O)C(C)/C=C(\C)C(OC(N)=O)C(OC)/C=C\C=C(/C)C(=O)NC(=CC1=O)C2=O (stereo not drawn) [Compound 17-AAG, 17-allylamino-17-demethoxygeldanamycin]	–	34	4.2	40	41.0 ± 13.5	2.5 ± 0.5	1860 nM and 3170 nM	dose-dependently induced degradation of ZAP70	45.74+/−3.177%	approximately 48 hours	~80	93
